According to US7205382B2, “Peptides, the production and use thereof for binding immunoglobulins” (Fresenius Medical Care Affina GmbH, priority 2000, dated 2007):
Bridge positions count the residues as written; N and C are the ends. Ends that are not written are not given here. cellulose = not defined here; βAla = NCCC(=O)O

Legend:
Assay type in all cases: binding
Set-up in all cases: key: No binding of immunoglobulin for the defined peptide variant, detection negative: 0; Binding of immunoglobulin for the defined peptide variant, detection positive: +
human IgG-Fc = test: Cellulose-immobilized 13-mer peptide variants incubated with human IgG-Fc, anti-human IgG-AP detection; details: IgG-Fc 1 μg/ml in blocking buffer, 3 h room temperature
How it was run: (§1)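 Read-out was colorimetric NBT/BCIP staining (developing buffer pH 9.5) after alkaline phosphatase-conjugated anti-human IgG at 1.2 μg/ml. Before this, the immobilized peptides had been incubated 3 h at room temperature with 1 μg/ml IgG-Fc, 1:10,000 diluted serum, or albumin-containing blocking buffer without addition.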

serum albumin = test: Cellulose-immobilized 13-mer peptide variants incubated with serum albumin (negative control), anti-human IgG-AP detection; details: blocking buffer without addition, 3 h room temperature
How it was run: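 Spot membrane, (βA)(βA) spacer; T-TBS pH 8.0 wash, block 5% saccharose/4% BSA. 3 h RT with IgG-Fc 1 μg/ml, serum 1:10,000, or block buffer only (specificity control). 3× wash, AP-anti-human IgG 1.2 μg/ml, NBT/BCIP in pH 9.5 buffer.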

[1] = system: immunoglobulins in human plasma; test: Cellulose-immobilized 13-mer peptide variants incubated with human plasma, anti-human IgG-AP detection; details: human plasma as sample, diluted 1:10,000 in blocking buffer, 3 h room temperature
How it was run: as §1

Substance	Result for incubation with human IgG-Fc (immunoglobulin binding detection) (human IgG-Fc)	Result for incubation with serum albumin (immunoglobulin binding detection) (serum albumin)	Result for incubation with human plasma (immunoglobulin binding detection) [1]
07V: cellulose-bound 13-mer variant DCAWHLVELVWCT-(βA)(βA) (DCAWHLVELVWCT-{βAla-βAla-cellulose}; disulfide 2-12 (inferred); not fully specified (N-terminus); printed as DCAWHLVELVWCT-(βA)(βA); reading uncertain)	0	0	0
08F: cellulose-bound 13-mer variant DCAWHLGFLVWCT-(βA)(βA) (DCAWHLGFLVWCT-{βAla-βAla-cellulose}; disulfide 2-12 (inferred); not fully specified (N-terminus); printed as DCAWHLGFLVWCT-(βA)(βA); reading uncertain)	0	0	0
08G: cellulose-bound 13-mer variant DCAWHLGGLVWCT-(βA)(βA) (DCAWHLGGLVWCT-{βAla-βAla-cellulose}; disulfide 2-12 (inferred); not fully specified (N-terminus); printed as DCAWHLGGLVWCT-(βA)(βA); reading uncertain)	0	0	0
08K: cellulose-bound 13-mer variant DCAWHLGKLVWCT-(βA)(βA) (DCAWHLGKLVWCT-{βAla-βAla-cellulose}; disulfide 2-12 (inferred); not fully specified (N-terminus); printed as DCAWHLGKLVWCT-(βA)(βA); reading uncertain)	+	0	+
08M: cellulose-bound 13-mer variant DCAWHLGMLVWCT-(βA)(βA) (DCAWHLGMLVWCT-{βAla-βAla-cellulose}; disulfide 2-12 (inferred); not fully specified (N-terminus); printed as DCAWHLGMLVWCT-(βA)(βA); reading uncertain)	+	0	+
08R: cellulose-bound 13-mer variant DCAWHLGRLVWCT-(βA)(βA) (DCAWHLGRLVWCT-{βAla-βAla-cellulose}; disulfide 2-12 (inferred); reading uncertain; also: printed as DCAWHLGRLVWCT-(βA)(βA))	+	0	+
08S: cellulose-bound 13-mer variant DCAWHLGSLVWCT-(βA)(βA) (DCAWHLGSLVWCT-{βAla-βAla-cellulose}; disulfide 2-12 (inferred); reading uncertain; also: printed as DCAWHLGSLVWCT-(βA)(βA))	+	0	0
08T: cellulose-bound 13-mer variant DCAWHLGTLVWCT-(βA)(βA) (DCAWHLGTLVWCT-{βAla-βAla-cellulose}; disulfide 2-12 (inferred); reading uncertain; also: printed as DCAWHLGTLVWCT-(βA)(βA))	0	0	0
08V: cellulose-bound 13-mer variant DCAWHLGVLVWCT-(βA)(βA) (DCAWHLGVLVWCT-{βAla-βAla-cellulose}; disulfide 2-12 (inferred); reading uncertain; also: printed as DCAWHLGVLVWCT-(βA)(βA))	0	0	0

More lines, now with the values ahead:

Result for incubation with human IgG-Fc (immunoglobulin binding detection) (human IgG-Fc)	Result for incubation with serum albumin (immunoglobulin binding detection) (serum albumin)	Result for incubation with human plasma (immunoglobulin binding detection) [1]	Substance
0	0	0	07W: cellulose-bound 13-mer variant DCAWHLWELVWCT-(βA)(βA) (DCAWHLWELVWCT-{βAla-βAla-cellulose}; disulfide 2-12 (inferred); not fully specified (N-terminus); printed as DCAWHLWELVWCT-(βA)(βA); reading uncertain)
0	0	0	07Y: cellulose-bound 13-mer variant DCAWHLYELVWCT-(βA)(βA) (DCAWHLYELVWCT-{βAla-βAla-cellulose}; disulfide 2-12 (inferred); not fully specified (N-terminus); printed as DCAWHLYELVWCT-(βA)(βA); reading uncertain)
+	0	0	08A: cellulose-bound 13-mer variant DCAWHLGALVWCT-(βA)(βA) (DCAWHLGALVWCT-{βAla-βAla-cellulose}; disulfide 2-12 (inferred); not fully specified (N-terminus); printed as DCAWHLGALVWCT-(βA)(βA); reading uncertain)
0	0	0	08C: cellulose-bound 13-mer variant DCAWHLGCLVWCT-(βA)(βA) (DCAWHLGCLVWCT-{βAla-βAla-cellulose}; not fully specified (N-terminus); printed as DCAWHLGCLVWCT-(βA)(βA); cysteine pairing not given here; reading uncertain)
+	0	+	08D: cellulose-bound 13-mer variant DCAWHLGDLVWCT-(βA)(βA) (DCAWHLGDLVWCT-{βAla-βAla-cellulose}; disulfide 2-12 (inferred); not fully specified (N-terminus); printed as DCAWHLGDLVWCT-(βA)(βA); reading uncertain)
+	0	+	08H: cellulose-bound 13-mer variant DCAWHLGHLVWCT-(βA)(βA) (DCAWHLGHLVWCT-{βAla-βAla-cellulose}; disulfide 2-12 (inferred); not fully specified (N-terminus); printed as DCAWHLGHLVWCT-(βA)(βA); reading uncertain)
0	0	0	08I: cellulose-bound 13-mer variant DCAWHLGILVWCT-(βA)(βA) (DCAWHLGILVWCT-{βAla-βAla-cellulose}; disulfide 2-12 (inferred); not fully specified (N-terminus); printed as DCAWHLGILVWCT-(βA)(βA); reading uncertain)
0	0	0	08L: cellulose-bound 13-mer variant DCAWHLGLLVWCT-(βA)(βA) (DCAWHLGLLVWCT-{βAla-βAla-cellulose}; disulfide 2-12 (inferred); not fully specified (N-terminus); printed as DCAWHLGLLVWCT-(βA)(βA); reading uncertain)
+	0	+	08N: cellulose-bound 13-mer variant DCAWHLGNLVWCT-(βA)(βA) (DCAWHLGNLVWCT-{βAla-βAla-cellulose}; disulfide 2-12 (inferred); not fully specified (N-terminus); printed as DCAWHLGNLVWCT-(βA)(βA); reading uncertain)
0	0	0	08P: cellulose-bound 13-mer variant DCAWHLGPLVWCT-(βA)(βA) (DCAWHLGPLVWCT-{βAla-βAla-cellulose}; disulfide 2-12 (inferred); not fully specified (N-terminus); printed as DCAWHLGPLVWCT-(βA)(βA); reading uncertain)
+	0	+	08Q: cellulose-bound 13-mer variant DCAWHLGQLVWCT-(βA)(βA) (DCAWHLGQLVWCT-{βAla-βAla-cellulose}; disulfide 2-12 (inferred); reading uncertain; also: printed as DCAWHLGQLVWCT-(βA)(βA))
